System: C. elegans
Conditions: Table S2, C. elegans SS assay, 110 μM, averages of 4 data points

C=C1C(=O)O[C@@H]2[C@H]3C(CO)=CC(=O)C3=C(C)C[C@H](OC(=O)Cc3ccc(O)cc3)[C@@H]12 [Lactupicrin]
Percentage of motility inhibition 0 h: 7%
Percentage of motility inhibition 24 h: 25%

COc1cc2c(cc1O)-c1c(OC)c(O)cc3c1[C@H](C2)NCC3 [Laetanine]
Percentage of motility inhibition 0 h: 0%
Percentage of motility inhibition 24 h: 0%

CC[C@@H](C(=O)[C@@H](C)[C@@H](O)[C@H](C)CCc1ccc(C)c(O)c1C(=O)[O-])[C@H]1O[C@](CC)([C@H]2CC[C@](O)(CC)[C@H](C)O2)C[C@@H]1C.[Na+] [Lasalocid (sodium)]
Percentage of motility inhibition 0 h: 15%
Percentage of motility inhibition 24 h: 4%

C=C1CC[C@H]2[C@@H](/C=C(\C)C(=O)[C@@]3(O)C[C@H](C)[C@H](O)[C@@H]3[C@@H]1O)C2(C)C [Lathyrol]
Percentage of motility inhibition 0 h: 1%
Percentage of motility inhibition 24 h: 3%

CCCCCCCCCCCC(=O)O [Lauric acid]
Percentage of motility inhibition 0 h: 58%
Percentage of motility inhibition 24 h: 61%

COc1cc2c(cc1O)C[C@@H]1NCCc3cc(O)c(OC)c-2c31.Cl [Laurolitsine (hydrochloride)]
Percentage of motility inhibition 0 h: 36%
Percentage of motility inhibition 24 h: 5%

COC(=O)N[C@H](C(=O)N1CC2(CC2)C[C@H]1c1ncc(-c2ccc3c(c2)C(F)(F)c2cc(-c4ccc5nc([C@@H]6[C@H]7CC[C@H](C7)N6C(=O)[C@@H](NC(=O)OC)C(C)C)[nH]c5c4)ccc2-3)[nH]1)C(C)C.O=C(O)C(O)C(O)C(=O)O [Ledipasvir (D‐tartrate)]
Percentage of motility inhibition 0 h: 34%
Percentage of motility inhibition 24 h: 13%

COC(=O)N[C@H](C(=O)N1CC2(CC2)C[C@H]1c1nc(-c2ccc3c(c2)C(F)(F)c2cc(-c4ccc5[nH]c([C@@H]6[C@H]7CC[C@H](C7)N6C(=O)[C@@H](NC(=O)OC)C(C)C)nc5c4)ccc2-3)c[nH]1)C(C)C [Ledipasvir (acetone)]
Percentage of motility inhibition 0 h: 14%
Percentage of motility inhibition 24 h: 4%

CC(C)c1ccc2c(c1)CC[C@H]1[C@](C)(CN)CCC[C@]21C.Cl [Leelamine (hydrochloride)]
Percentage of motility inhibition 0 h: 22%
Percentage of motility inhibition 24 h: 57%

COc1cc(C(=O)OCCCCN=C(N)N)cc(OC)c1O.Cl [Leonurine (hydrochloride)]
Percentage of motility inhibition 0 h: 0%
Percentage of motility inhibition 24 h: 0%

COc1cccc(C[n+]2cn(Cc3ccccc3)c(C)c2C)c1.[Cl-] [Lepidiline C]
Percentage of motility inhibition 0 h: 0%
Percentage of motility inhibition 24 h: 0%

O=c1c(O[C@@H]2O[C@H](CO)[C@@H](O)[C@H](O)[C@H]2O[C@@H]2OC[C@@H](O)[C@H](O)[C@H]2O)c(-c2ccc(O)cc2)oc2cc(O)cc(O)c12 [Leucoside]
Percentage of motility inhibition 0 h: 9%
Percentage of motility inhibition 24 h: 8%

CC(C)=CCC[C@](C)(O)[C@@H]1CC=C(C)CC1 [Levomenol]
Percentage of motility inhibition 0 h: 37%
Percentage of motility inhibition 24 h: 50%

COc1c(/C=C/C(=O)c2ccc(O)cc2)ccc(O)c1CC=C(C)C [Licochal cone C]
Percentage of motility inhibition 0 h: 0%
Percentage of motility inhibition 24 h: 8%

CC(C)=CCc1c(O)ccc(-c2coc3cc(O)cc(O)c3c2=O)c1O [Licoisoflavone A]
Percentage of motility inhibition 0 h: 0%
Percentage of motility inhibition 24 h: 10%

CC1(C)[C@@H](O[C@@H]2O[C@H](C(=O)O)[C@@H](O)[C@H](O)[C@H]2O[C@@H]2O[C@H](C(=O)O)[C@@H](O)[C@H](O)[C@H]2O)CC[C@]2(C)[C@H]3C(=O)C=C4[C@@H]5C[C@](C)(C(=O)O)CC[C@]5(C)CC[C@@]4(C)[C@]3(C)CC[C@@H]12 [Licorice-saponin H2]
Percentage of motility inhibition 0 h: 0%
Percentage of motility inhibition 24 h: 14%

C[C@]1(C(=O)O)CC[C@]2(C)CC[C@]3(C)C(=CC(=O)[C@@H]4[C@@]5(C)CC[C@H](O[C@@H]6O[C@H](C(=O)O)[C@@H](O)[C@H](O)[C@H]6O[C@@H]6O[C@H](C(=O)O)[C@@H](O)[C@H](O)[C@H]6O)[C@](C)(CO)[C@@H]5CC[C@]43C)[C@@H]2C1 [Licoricesaponin G2]
Percentage of motility inhibition 0 h: 2%
Percentage of motility inhibition 24 h: 10%

COc1cc2c(cc1OC)[C@@H](Cc1ccc(O)c(Oc3cc4c(cc3OC)CCN(C)[C@@H]4Cc3ccc(O)cc3)c1)N(C)CC2 [Liensinine]
Percentage of motility inhibition 0 h: 34%
Percentage of motility inhibition 24 h: 8%

Cc1nc(C)c(C)nc1C.Cl [Ligustrazine (hydrochloride)]
Percentage of motility inhibition 0 h: 0%
Percentage of motility inhibition 24 h: 17%

C[C@@H]1O[C@@H](OC[C@H]2O[C@@H](Oc3cc(O)c4c(=O)cc(-c5ccc(O)cc5)oc4c3)[C@H](O[C@@H]3O[C@@H](C)[C@H](O)[C@@H](O)[C@H]3O)[C@@H](O)[C@@H]2O)[C@H](O)[C@H](O)[C@H]1O [Ligustroflavone]
Percentage of motility inhibition 0 h: 10%
Percentage of motility inhibition 24 h: 8%

COC(=O)C1=COC(O[C@@H]2O[C@H](CO)[C@@H](O)[C@H](O)[C@H]2O)/C(=C/C(=O)O)C1CC(=O)OCCc1ccc(O)cc1 (some centres unmarked) [Ligustrosidic acid]
Percentage of motility inhibition 0 h: 3%
Percentage of motility inhibition 24 h: 24%

COc1ccc(-c2cc(=O)c3c(O)cc(O[C@@H]4O[C@H](CO[C@@H]5O[C@@H](C)[C@H](O)[C@@H](O)[C@H]5O)[C@@H](O)[C@H](O)[C@H]4O)cc3o2)cc1 [Linarin]
Percentage of motility inhibition 0 h: 15%
Percentage of motility inhibition 24 h: 23%

CCC[C@@H]1C[C@@H](C(=O)N[C@@H]([C@H]2O[C@H](SC)[C@H](O)[C@@H](O)[C@H]2O)[C@@H](C)O)N(C)C1.Cl.O [Lincomycin (hydrochloride hydrate)]
Percentage of motility inhibition 0 h: 1%
Percentage of motility inhibition 24 h: 0%

C=C1[C@H]2C[C@H]2[C@]2(C)Cc3occ(C)c3[C@H](O)[C@@H]12 [Lindenenol]
Percentage of motility inhibition 0 h: 0%
Percentage of motility inhibition 24 h: 19%

C=C1[C@H]2C[C@H]2[C@]2(C)Cc3occ(C)c3[C@H](OC(C)=O)[C@@H]12 [Linderene acetate]
Percentage of motility inhibition 0 h: 8%
Percentage of motility inhibition 24 h: 20%

O=C1C[C@@H](c2ccc(O)cc2)Oc2cc(O)ccc21 [Liquiriti genin]
Percentage of motility inhibition 0 h: 44%
Percentage of motility inhibition 24 h: 28%

COc1cc2c3c(c1O)-c1ccccc1C[C@@H]3N(C)CC2 [Lirinidine]
Percentage of motility inhibition 0 h: 0%
Percentage of motility inhibition 24 h: 6%

O.O.O.O.O=C([O-])CC(O)(CC(=O)[O-])C(=O)[O-].[Li+].[Li+].[Li+] [Lithium citrate (tetrahydrate)]
Percentage of motility inhibition 0 h: 13%
Percentage of motility inhibition 24 h: 0%

CN1[C@@H](CC(=O)c2ccccc2)CCC[C@H]1CC(=O)c1ccccc1 [Lobelanine]
Percentage of motility inhibition 0 h: 0%
Percentage of motility inhibition 24 h: 5%

CN1[C@@H](CC(=O)c2ccccc2)CCC[C@H]1C[C@H](O)c1ccccc1.Cl [Lobeline (hydrochloride)]
Percentage of motility inhibition 0 h: 26%
Percentage of motility inhibition 24 h: 30%

COC(=O)C1=CO[C@@H](O)[C@@H]2[C@@H](C)[C@@H](O)C[C@H]12 [Loganetin]
Percentage of motility inhibition 0 h: 0%
Percentage of motility inhibition 24 h: 2%

CCn1cc(C(=O)O)c(=O)c2cc(F)c(N3CCNC(C)C3)c(F)c21.Cl (centres unmarked) [Lomefloxacin (hydrochloride)]
Percentage of motility inhibition 0 h: 39%
Percentage of motility inhibition 24 h: 0%

CC[C@](C)(C#N)O[C@@H]1O[C@H](CO)[C@@H](O)[C@H](O)[C@H]1O [Lotaustralin]
Percentage of motility inhibition 0 h: 11%
Percentage of motility inhibition 24 h: 20%

COc1cc2c(cc1O)CC[N+](C)(C)[C@@H]2Cc1ccc(O)cc1.[OH-] [Lotusine (hydroxide)]
Percentage of motility inhibition 0 h: 4%
Percentage of motility inhibition 24 h: 0%

COc1ccc(CCC(=O)c2ccc(O)cc2)c(OC)c1 [Loureirin A]
Percentage of motility inhibition 0 h: 11%
Percentage of motility inhibition 24 h: 0%

COc1cc(OC)c(CCC(=O)c2ccc(O)cc2)c(OC)c1 [Loureirin B]
Percentage of motility inhibition 0 h: 10%
Percentage of motility inhibition 24 h: 0%

C[C@H](CCC(=O)O)[C@H]1CC(=O)[C@@]2(C)C3=C(C(=O)C[C@]12C)[C@@]1(C)CCC(=O)C(C)(C)[C@@H]1C[C@@H]3O [Lucideric acid A]
Percentage of motility inhibition 0 h: 0%
Percentage of motility inhibition 24 h: 20%

CC1(C)CC[C@]2(C(=O)O[C@@H]3O[C@H](CO)[C@@H](O)[C@H](O)[C@H]3O)CC[C@]3(C)C(=CC[C@@H]4[C@@]5(C)C[C@@H](O)[C@H](O[C@@H]6O[C@H](CO)[C@@H](O)[C@H](O)[C@H]6O)[C@@](C)(CO)[C@@H]5CC[C@]43C)[C@@H]2C1 [Lucyoside B]
Percentage of motility inhibition 0 h: 9%
Percentage of motility inhibition 24 h: 4%

C=C(C)[C@@H]1CC[C@]2(C)CC[C@]3(C)[C@H](CC[C@@H]4[C@@]5(C)CC[C@H](OC(C)=O)C(C)(C)[C@@H]5CC[C@]43C)[C@@H]12 [Lupeol acetate]
Percentage of motility inhibition 0 h: 0%
Percentage of motility inhibition 24 h: 0%

O=c1cc(-c2ccc(O)c(O)c2)oc2cc(O)cc(O[C@@H]3O[C@H](CO)[C@@H](O)[C@H](O)[C@H]3O)c12 [Luteolin 5‐O‐glucoside]
Percentage of motility inhibition 0 h: 8%
Percentage of motility inhibition 24 h: 0%
